# Source: ChEMBL document CHEMBL3817755, “Design, synthesis and biological evaluation of indazolepyrimidine based derivatives as anticancer agents with anti-angiogenic and antiproliferative activities” (Medchemcomm, 2016)
# Tests used:
# Type in all cases: functional
# [1] = Growth inhibition of human MOLT4 cells at 10 uM after 48 hrs by SRB assay; details: MOLT-4, 48 h, read-out: GI
# [2] = Growth inhibition of human RPMI8226 cells at 10 uM after 48 hrs by SRB assay; details: RPMI-8226, 48 h, read-out: GI
# SR = experiment: Growth inhibition of human SR cells at 10 uM after 48 hrs by SRB assay; details: read-out: GI
# A549 = experiment: Growth inhibition of human A549/ATCC cells at 10 uM after 48 hrs by SRB assay; details: A549, 48 h, read-out: GI
# [3] = Growth inhibition of human HOP62 cells at 10 uM after 48 hrs by SRB assay; details: HOP-62, 48 h, read-out: GI
# NCI-H226 = experiment: Growth inhibition of human NCI-H226 cells at 10 uM after 48 hrs by SRB assay; details: NCI-H226, 48 h, read-out: GI
# NCI-H322M = experiment: Growth inhibition of human NCI-H322M cells at 10 uM after 48 hrs by SRB assay; details: read-out: GI
# [4] = Growth inhibition of human COLO205 cells at 10 uM after 48 hrs by SRB assay; details: COLO 205, 48 h, read-out: GI
# [5] = Growth inhibition of human HCC2998 cells at 10 uM after 48 hrs by SRB assay; details: HCC 2998, 48 h, read-out: GI
# [6] = Growth inhibition of human HCT116 cells at 10 uM after 48 hrs by SRB assay; details: HCT-116, 48 h, read-out: GI
# [7] = Growth inhibition of human HCT15 cells at 10 uM after 48 hrs by SRB assay; details: HCT-15, 48 h, read-out: GI
# HT-29 = experiment: Growth inhibition of human HT-29 cells at 10 uM after 48 hrs by SRB assay; details: HT-29, 48 h, read-out: GI
# KM12 = experiment: Growth inhibition of human KM12 cells at 10 uM after 48 hrs by SRB assay; details: KM12, 48 h, read-out: GI
# [8] = Growth inhibition of human SF295 cells at 10 uM after 48 hrs by SRB assay; details: SF-295, 48 h, read-out: GI
# [9] = Growth inhibition of human SF539 cells at 10 uM after 48 hrs by SRB assay; details: SF-539, 48 h, read-out: GI
# [10] = Growth inhibition of human SNB75 cells at 10 uM after 48 hrs by SRB assay; details: SNB-75, 48 h, read-out: GI
# [11] = Growth inhibition of human LOXIMVI cells at 10 uM after 48 hrs by SRB assay; details: LOX IMVI, read-out: GI
# Malme-3M = experiment: Growth inhibition of human MALME-3M cells at 10 uM after 48 hrs by SRB assay; details: read-out: GI
# M14 = experiment: Growth inhibition of human M14 cells at 10 uM after 48 hrs by SRB assay; details: M14, 48 h, read-out: GI
# SK-MEL-28 = experiment: Growth inhibition of human SK-MEL-28 cells at 10 uM after 48 hrs by SRB assay; details: SK-MEL-28, 48 h, read-out: GI
# SK-MEL-5 = experiment: Growth inhibition of human SK-MEL-5 cells at 10 uM after 48 hrs by SRB assay; details: SK-MEL-5, 48 h, read-out: GI
# [12] = Growth inhibition of human UACC257 cells at 10 uM after 48 hrs by SRB assay; details: UACC-257, 48 h, read-out: GI
# [13] = Growth inhibition of human UACC62 cells at 10 uM after 48 hrs by SRB assay; details: UACC-62, 48 h, read-out: GI
# [14] = Growth inhibition of human IGROV1 cells at 10 uM after 48 hrs by SRB assay; details: IGROV-1, 48 h, read-out: GI
# [15] = Growth inhibition of human OVCAR5 cells at 10 uM after 48 hrs by SRB assay; details: OVCAR-5, 48 h, read-out: GI
# [16] = Growth inhibition of human OVCAR8 cells at 10 uM after 48 hrs by SRB assay; details: OVCAR-8, 48 h, read-out: GI
# [17] = Growth inhibition of human NCI-ADR-RES cells at 10 uM after 48 hrs by SRB assay; details: read-out: GI
# [18] = Growth inhibition of human SKOV3 cells at 10 uM after 48 hrs by SRB assay; details: SK-OV-3, 48 h, read-out: GI
# 786-0 = experiment: Growth inhibition of human 786-0 cells at 10 uM after 48 hrs by SRB assay; details: 786-0, 48 h, read-out: GI
# A498 = experiment: Growth inhibition of human A498 cells at 10 uM after 48 hrs by SRB assay; details: A498, 48 h, read-out: GI
# ACHN = experiment: Growth inhibition of human ACHN cells at 10 uM after 48 hrs by SRB assay; details: read-out: GI
# [19] = Growth inhibition of human Caki1 cells at 10 uM after 48 hrs by SRB assay; details: CAKI-1, 48 h, read-out: GI
# [20] = Growth inhibition of human RXF393 cells at 10 uM after 48 hrs by SRB assay; details: RXF 393, 48 h, read-out: GI
# SN12C = experiment: Growth inhibition of human SN12C cells at 10 uM after 48 hrs by SRB assay; details: read-out: GI
# [21] = Growth inhibition of human TK10 cells at 10 uM after 48 hrs by SRB assay; details: TK-10, 48 h, read-out: GI
# [22] = Growth inhibition of human UO31 cells at 10 uM after 48 hrs by SRB assay; details: UO-31, 48 h, read-out: GI
# [23] = Growth inhibition of human PC3 cells at 10 uM after 48 hrs by SRB assay; details: PC-3, 48 h, read-out: GI
# [24] = Growth inhibition of human DU145 cells at 10 uM after 48 hrs by SRB assay; details: DU-145, 48 h, read-out: GI
# MCF7 = experiment: Growth inhibition of human MCF7 cells at 10 uM after 48 hrs by SRB assay; details: MCF7, 48 h, read-out: GI
# MDA-MB-231 = experiment: Growth inhibition of human MDA-MB-231 cells at 10 uM after 48 hrs by SRB assay; details: MDA-MB-231, 48 h, read-out: GI
# [25] = Growth inhibition of human Hs 578T cells at 10 uM after 48 hrs by SRB assay; details: read-out: GI
# [26] = Growth inhibition of human BT549 cells at 10 uM after 48 hrs by SRB assay; details: BT-549, 48 h, read-out: GI
# CCRF-CEM = experiment: Growth inhibition of human CCRF-CEM cells at 10 uM after 48 hrs by SRB assay; details: read-out: GI
compound,measurement,setting,value
Fc1ccc(Nc2nccc(Nc3ccc4[nH]ncc4c3)n2)cc1,inhibition of growth at 10 µM,[1],74%
same,inhibition of growth at 10 µM,[2],59%
same,inhibition of growth at 10 µM,SR,62%
same,inhibition of growth at 10 µM,A549,43%
same,inhibition of growth at 10 µM,[3],41%
same,inhibition of growth at 10 µM,NCI-H226,53%
same,inhibition of growth at 10 µM,NCI-H322M,27%
same,inhibition of growth at 10 µM,[4],39%
same,inhibition of growth at 10 µM,[5],1%
same,inhibition of growth at 10 µM,[6],45%
same,inhibition of growth at 10 µM,[7],38%
same,inhibition of growth at 10 µM,HT-29,47%
same,inhibition of growth at 10 µM,KM12,76%
same,inhibition of growth at 10 µM,[8],11%
same,inhibition of growth at 10 µM,[9],22%
same,inhibition of growth at 10 µM,[10],15%
same,inhibition of growth at 10 µM,[11],32%
same,inhibition of growth at 10 µM,Malme-3M,3%
same,inhibition of growth at 10 µM,M14,38%
same,inhibition of growth at 10 µM,SK-MEL-28,11%
same,inhibition of growth at 10 µM,SK-MEL-5,66%
same,inhibition of growth at 10 µM,[12],26%
same,inhibition of growth at 10 µM,[13],29%
same,inhibition of growth at 10 µM,[14],44%
same,inhibition of growth at 10 µM,[15],32%
same,inhibition of growth at 10 µM,[16],59%
same,inhibition of growth at 10 µM,[17],32%
same,inhibition of growth at 10 µM,[18],24%
same,inhibition of growth at 10 µM,786-0,32%
same,inhibition of growth at 10 µM,A498,51%
same,inhibition of growth at 10 µM,ACHN,47%
same,inhibition of growth at 10 µM,[19],51%
same,inhibition of growth at 10 µM,[20],67%
same,inhibition of growth at 10 µM,SN12C,40%
same,inhibition of growth at 10 µM,[21],38%
same,inhibition of growth at 10 µM,[22],61%
same,inhibition of growth at 10 µM,[23],54%
same,inhibition of growth at 10 µM,[24],34%
same,inhibition of growth at 10 µM,MCF7,37%
same,inhibition of growth at 10 µM,MDA-MB-231,21%
same,inhibition of growth at 10 µM,[25],35%
same,inhibition of growth at 10 µM,[26],33%
Clc1ccc(Nc2nccc(Nc3ccc4[nH]ncc4c3)n2)cc1,inhibition of growth at 10 µM,CCRF-CEM,95%
same,inhibition of growth at 10 µM,[1],77%
same,inhibition of growth at 10 µM,[2],82%
same,inhibition of growth at 10 µM,SR,97%
same,inhibition of growth at 10 µM,A549,50%
same,inhibition of growth at 10 µM,[3],34%
same,inhibition of growth at 10 µM,NCI-H226,72%
same,inhibition of growth at 10 µM,NCI-H322M,25%
same,inhibition of growth at 10 µM,[4],58%
same,inhibition of growth at 10 µM,[5],6%
same,inhibition of growth at 10 µM,[6],61%
same,inhibition of growth at 10 µM,[7],60%
same,inhibition of growth at 10 µM,HT-29,83%
same,inhibition of growth at 10 µM,KM12,91%
same,inhibition of growth at 10 µM,[8],29%
same,inhibition of growth at 10 µM,[9],24%
same,inhibition of growth at 10 µM,[10],32%
same,inhibition of growth at 10 µM,[11],55%
same,inhibition of growth at 10 µM,Malme-3M,12%
same,inhibition of growth at 10 µM,M14,56%
same,inhibition of growth at 10 µM,SK-MEL-28,20%
same,inhibition of growth at 10 µM,SK-MEL-5,74%
same,inhibition of growth at 10 µM,[12],12%
same,inhibition of growth at 10 µM,[13],66%
same,inhibition of growth at 10 µM,[14],53%
same,inhibition of growth at 10 µM,[15],35%
same,inhibition of growth at 10 µM,[16],78%
same,inhibition of growth at 10 µM,[17],61%
same,inhibition of growth at 10 µM,[18],12%
same,inhibition of growth at 10 µM,786-0,43%
same,inhibition of growth at 10 µM,A498,61%
same,inhibition of growth at 10 µM,ACHN,53%
same,inhibition of growth at 10 µM,[19],48%
same,inhibition of growth at 10 µM,[20],65%
same,inhibition of growth at 10 µM,SN12C,48%
same,inhibition of growth at 10 µM,[21],38%
same,inhibition of growth at 10 µM,[22],83%
same,inhibition of growth at 10 µM,[23],75%
same,inhibition of growth at 10 µM,[24],50%
same,inhibition of growth at 10 µM,MCF7,75%
same,inhibition of growth at 10 µM,MDA-MB-231,31%
same,inhibition of growth at 10 µM,[25],38%
same,inhibition of growth at 10 µM,[26],47%
